Experimental data published in patent US9567586B2, “EpCAM aptamer for detection of cancer stem cells” (DEAKIN UNIVERSITY, priority 2012, dated 2017).
Where two headings read alike, the source gives them in different places.

Tests used:
[1] = molecular target: T1, native EpCAM expressed on the cell surface (Homo sapiens, UniProt P16422); experiment: Binding affinities of EpCAM aptamers by flow cytometry; details: read-out: KD (±SEM)
T1 construct: host or cells: T47D, MCF7, MDA-MB-231, HT-29 (EpCAM-positive); U118MG (EpCAM-negative control)
T1 sequence (P16422 24-314): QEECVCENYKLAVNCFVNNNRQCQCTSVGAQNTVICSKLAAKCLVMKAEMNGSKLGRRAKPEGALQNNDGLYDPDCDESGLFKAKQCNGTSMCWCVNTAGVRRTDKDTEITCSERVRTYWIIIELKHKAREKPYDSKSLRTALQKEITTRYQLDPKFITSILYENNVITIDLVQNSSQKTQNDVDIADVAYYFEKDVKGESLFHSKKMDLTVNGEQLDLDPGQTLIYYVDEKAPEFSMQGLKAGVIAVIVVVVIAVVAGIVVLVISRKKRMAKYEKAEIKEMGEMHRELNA
Experimental: (§1) Cells were harvested at 80% confluence with trypsin digestion and resuspended in washing buffer (DPBS with 5 mM MgCl2) and enumerated. Following centrifugation (1000×g for 5 min), the cell pellet was resuspended in assay buffer (DPBS supplemented with 5 mM MgCl2, 0.1 mg/ml tRNA, 0.1 mg/ml salmon sperm DNA, 0.2% [w/v] sodium azide, and 5% FCS) and diluted to 1×10^6/mL. The blocking step was carried out at 4′C. The binding of the aptamers was carried out at 37′C for 30 min or 4′C for 1 h, with the final concentration of magnesium chloride being 2.5 mM in all binding assays.
(§2) The equilibrium dissociation constant (K′d) of successful 2′-fluoropyrimidine RNA aptamer species to native EpCAM expressed on the cell surface was determined using flow cytometry with EpCAM-positive and -negative cell lines and a negative control (2-O-methyl-pyrimidine) aptamer (5′-DY647-mGCmGACUmGmGUUmACCCmGmGUCmGdT-3′) (SEQ ID NO:13). Kato III or U118MG cells (5×10^5) were first incubated with assay buffer followed by two washes with binding buffer prior to incubation with serial concentrations (approximately 10-fold above and below the apparent K′d) of FITC-labelled aptamer in a 100 μL assay buffer for 1 h on ice. The cells were washed three times, resuspended in 150 μL assay buffer containing 2.5 mM MgCl2 and subjected to flow cytometric analyses. The FITC-labelled unselected library was used as another negative control. The mean fluorescence intensity (MFI) of the unselected library was subtracted from that of the aptamer-target cell to generate the MFI of specific binding. The K′d for each aptamer was determined by Scatchard analysis according to the equation: [Bound aptamer]/[aptamer]=−(1/KD)×[bound aptamer]+([T]tol/KD) where [T]tot represents the total target concentration. Design and Generation of EpCAM Aptamer-siRNA Chimera
(§3) The binding affinities of both aptamers have been characterised against all five cell lines used in this study by flow cytometry, and the results are shown in Table 1.

[2] = system: native EpCAM expressed on the cell surface; experiment: as above; parameters: species or system human; details: U118MG cells (EpCAM negative); read-out: KD (±SEM)
Experimental: as §1, §2, §3

EpCAM [3] = molecular target: T2, EpCAM (Homo sapiens, UniProt P16422); experiment: Immunofluorescence staining of paraffin embedded xenograft tumour sections; parameters: from tissue; host or cells: xenograft tumours of T47D, MCF7, MDA-MB-231, HT-29 and U118MG cells grown in BALB/c-Foxn1 nu mice, formalin-fixed and paraffin-embedded; key to Quantification of anti-EpCAM staining by immunofluorescence: ‘−’ no staining; ‘+’ faint incomplete staining in >10% of cells; ‘++’ moderate complete membrance staining; ‘+++’ strong complete membrance staining
T2 sequence (P16422 24-314): T1 sequence (P16422 24-314)
Experimental: (§4) A: Immunofluorescence staining of breast cancer (T47D, MCF7 and MDA-MB-231), colon cancer (HT-29) and glioblastoma (U118MG) xenograft tumours by EpCAM aptamers, DT3 and 23, control aptamer and the anti-EpCAM antibody, 323/A3 (Blue: nuclei; Red: EpCAM positive staining). B: Immunohistochemistry was performed with the anti-EpCAM antibody BerEP4, and all tumours were evaluated by haematoxylin and eosin staining for morphological confirmation. Aptamer staining was performed for 15 min at 37° C., while 323/A3 staining was performed at 4° C. overnight and BerEP4 was performed at room temperature for 20 min. All fluorescent images were taken at 60×, while light microscopy images were taken at 20×. Images are representative of at least three separate experiments. Scale bar: 50 μm.
(§5) The cell lines of human origin used in this study were purchased from American type Culture Collection. They were glioblastoma U118-MG; breast carcinoma MCF-7, MDA-MB-231 and T47D; and colorectal adenocarcinoma HT-29. Cells were grown and maintained in culture with Dulbecco's Modified Eagle medium (DMEM) (Invitrogen, Victoria, Australia) supplemented with 10% fetal calf serum (MCF-7, T47D, HT-29, and U118-MG), or Roswell Park Memorial Institute 1640 (RPMI 1640) (Invitrogen) with 10% fetal calf serum (MDA-MB-231). Cells were maintained at 37 ^CC in a humidified atmosphere containing 5% CO2. For xenograft studies, single cell suspensions were harvested by trypsinisation, washed with PBS and resuspended in 0.1 mL of PBS for implantation in BALB/c-Foxn1 ^nu female mice. Once tumours had reached approximately […], they were excised and fixed in 10% neutral buffered formalin prior to processing and embedding. All animal procedures were approved by Deakin University Animal Welfare Committee, and in accordance with the Australian Code of Practice for the Care and Use of Animals for Scientific Purposes.
(§6) Sections from each of the xenograft tumours were cut at 4 μm onto polylysine coated slides prior to deparaffinisation with Histoclear and rehydration through graded ethanol. Heat induced antigen retrieval was performed in a microwave oven using Tris-EDTA buffer (10 mM Tris, 1 mM EDTA, 0.05% Tween 20, pH 9.0) for 20 min and the slides were allowed to cool prior to blocking with 0.1 mg/mL tRNA, 0.1 mg/mL salmon sperm DNA and 1 mg/mL bovine serum albumin (BSA) in phosphate buffered saline (PBS) for 20 min. Following the blocking step, slides were washed in PBS containing 0.1% Tween 20 twice for 2 min prior to incubation with either aptamer or antibody. Aptamers were prepared as previously described (Shigdar S et al, supra). Briefly, aptamers were heated to 85° C. for 5 min, allowed to cool to room temperature for 10 min and then heated at 37° C. for 15 min. Slides were incubated with aptamers at 100 nM concentration in a solution of PBS containing 5 mM MgCl2, 0.1 mg/mL tRNA, 1 mg/mL BSA, 10% dextran sulphate and 500 μg/mL heparin for 15 min at 37° C. The slides were then washed three times for 5 min each prior to incubation with Bisbenzimide Hoechst 33342 (3 μg/mL) for 10 min. Slides were then mounted using VECTASHIELD and coverslipped prior to visualisation using a Fluoview FV10i laser scanning confocal microscope. All images used for direct comparison were taken with identical exposure parameters and are presented without any digital contrast alteration or background subtraction. Antibody staining was performed using the anti-EpCAM antibody 323/A3 (ab8601, Abcam). Slides were washed and blocked following the same protocol as previously described prior to antibody staining. The antibody was prepared at a concentration of 10 μg/mL and the slides were incubated overnight at 4° C. Slides were then washed three times for 5 min followed by incubation with a goat-anti-mouse IgG AlexaFluor 647 conjugate (Invitrogen) at a concentration of 10 μg/mL for 2 h prior to washing, staining with Bisbenzimide Hoechst 33342, and coverslipping. […]

EpCAM [4] = experiment: as above; parameters: species or system human; key to Quantification of anti-EpCAM staining by immunofluorescence: ‘−’ no staining; ‘+’ faint incomplete staining in >10% of cells; ‘++’ moderate complete membrance staining; ‘+++’ strong complete membrance staining
Experimental: as §4, §5
as §6, with “Abcam).” for “Abcam). Slides were washed and blocked following the same protocol as previously described prior to antibody staining. The antibody was prepared at a concentration of 10 μg/mL and the slides were incubated overnight at 4° C. Slides were then washed three times for 5 min followed by incubation with a goat-anti-mouse IgG AlexaFluor 647 conjugate (Invitrogen) at a concentration of 10 μg/mL for 2 h prior to washing, staining with Bisbenzimide Hoechst 33342, and coverslipping.”

HT29 colon cancer cells = experiment: Tumoursphere formation in 96-well, HT29; assay type: cell-based, human; details: HT29, 3 μM Dox equivalent, 5 days
Experimental: Under non-adherent and serum-free conditions, only the cancer stem cells (CSCs) and progenitor cells survive and undergo self-renewal as well as proliferate to form tumour spheres. The inventor studied the ability of aptamer-Dox to target cancer stem cells by plating various cell doses of single-cell suspension of HT29 colon cancer cells in ultra-low attachment 96-wells in the presence of 3 μM of free Dox, 3 μM equivalent Dox conjugated with aptamer, 3 μM Dox-negative control aptamer or vehicle control for 5 days. Tumour spheres (with a size >50 μm) were enumerated.

[5] = system: PLC/PRF/5 hepatocellular carcinoma cell line; experiment: Tumoursphere formation in 96-well, PLC/PRF/5; assay type: cell-based, human
EpCAM [6] = molecular target: T2, EpCAM; details: patients with metastatic breast cancer; cited from earlier work

Compound: 5′-GCGACUGGUUACCCGGUCG-3′ (RNA aptamer, modifications not given here, further chemistry not given here) [DT3]
- Kd ([1]; HT29 cells): 158 ± 70 nM
- Kd ([1]; MCF7 cells): 50 ± 18.5 nM
- Kd ([1]; MDA-MB-231 cells): 98.9 ± 37.8 nM
- Kd ([1]; T47D cells): 74.2 ± 26.2 nM
- Kd [2]: > 1000 nM
- staining of HT-29 xenograft sections (in words) (EpCAM [3]; HT-29 colorectal cancer xenograft): did not show any staining
- Quantification of anti-EpCAM staining by immunofluorescence (EpCAM [3]; HT-29 xenograft): −
- Quantification of anti-EpCAM staining by immunofluorescence (EpCAM [3]; MCF7 xenograft): + (‘+’ faint incomplete staining in >10% of cells)
- Quantification of anti-EpCAM staining by immunofluorescence (EpCAM [3]; MDA-MB-231 xenograft): + (‘+’ faint incomplete staining in >10% of cells)
- detection of EpCAM in MDA-MB-231 xenograft tumour (in words) (EpCAM [3]; MDA-MB-231 xenograft, low EpCAM expression): successfully detect EpCAM
- Quantification of anti-EpCAM staining by immunofluorescence (EpCAM [3]; T47D xenograft): ++
- staining of human breast cancer xenografts (in words) (EpCAM [3]; T47D, MCF7 and MDA-MB-231 xenografts, 100 nM, 15 min, 37° C., dextran sulphate and heparin): highly sensitive staining
- Quantification of anti-EpCAM staining by immunofluorescence (EpCAM [4]; U118MG xenograft): −
- staining of U118MG xenograft (in words) (EpCAM [4]; U118MG xenograft that does not express EpCAM): no staining detectable

Compound: CC[C@@H](C(=O)[C@@H](C)[C@@H](O)[C@H](C)[C@@H]1O[C@@H]([C@@H](CC)C(=O)O)CC[C@@H]1C)[C@H]1O[C@]2(C=C[C@@H](O)[C@]3(CC[C@@](C)([C@H]4CC[C@](O)(CC)[C@H](C)O4)O3)O2)[C@H](C)C[C@@H]1C [Saline, Salinomycin]
- Number of wells with sphere (HT29 colon cancer cells; 1 cell seeded/well): 0/10
- Number of wells with sphere (HT29 colon cancer cells; 10 cells seeded/well): 0/10
- Number of wells with sphere (HT29 colon cancer cells; 100 cells seeded/well): 0/10
- Number of wells with sphere (HT29 colon cancer cells; 200 cells seeded/well): 2/10
- Number of wells with sphere ([5]; 1 cell seeded/well): 0/10
- Number of wells with sphere ([5]; 10 cells seeded/well): 0/10
- Number of wells with sphere ([5]; 100 cells seeded/well): 0/10
- Number of wells with sphere ([5]; 200 cells seeded/well): 0/10

Compound: adecatumumab: fully humanised monoclonal anti-EpCAM antibody
- clinical response (EpCAM [6]): dose-dependent and target dependent clinical responses
